One series relates to primary adult rat DRGN. Put plainly: DRGN survival and neurite outgrowth in the presence of CNS myelin extracts. Format: cell-based. To be noted: with CME. On the procedure:
Primary adult rat DRGN cultures were prepared as described by us previously (11). DRGN were dissociated using collagenase and cultured in supplemented Neurobasal-A (#10888022; NBA) containing B27 supplement (#17504044), L-glutamine (#25030081) and gentamicin (#15710064) (all from Invitrogen, Paisley, UK) at a plating density of 500/well in 8-well chamber slides (#C6932; Beckton Dickinson, Oxford, UK) pre-coated with 100 μg/ml poly-D-lysine (#P6407; Sigma, Poole, UK). Glial cell proliferation was inhibited in cultures using 5-fluoro-2-deoxyuridine (5-FDU; #343333; Sigma) at 30 μM (11). […] Positive controls included pre-optimized fibroblast growth factor-2 (FGF-2) (#100-18C, Peprotech, London, UK; 10 ng/ml (11)). Cells were cultured for 4 days in a humidified chamber at 37° C. and 5% CO2 before being subjected to immunocytochemistry, as described below. Treatments were added in triplicate and repeated on 3 independent occasions (i.e. total n=9 wells/treatment) by an investigator masked to the treatment conditions.
DRGN were fixed in 8-well chamber slides in situ using 4% paraformaldehyde before being subjected to immunocytochemistry with rabbit anti-βIII tubulin antibodies (#T3952; 1:200 dilution; Sigma) to detect DRGN soma and neurites, as described previously (11). Alexa-488 goat […] IgG (#A32723; 1:400 dilution; ThermoFisher, Leicester, UK) secondary antibodies were used to visualize DRGN soma and neurites using an Axioplan 2 epifluorescent microscope equipped with an AxioCam HRc and running Axiovision Software (all from Carl Zeiss, Hertfordshire, UK).
With the investigator masked to the treatment conditions, the proportion of βIII-tubulin^+ DRGN, the number of DRGN with neurites and the longest DRGN neurite length were all calculated using Axiovision Software, as described by us previously (11).

Series [1] concerns DC injury model of SCI. Nature of the series: horizontal ladder crossing test (locomotor function) after DC injury. Format: in vivo, mice. The conditions noted are these: oral; for locomotor function, ladder crossing: over 6 weeks after DC injury. On the procedure: (§1) Mice were subcutaneously injected with Buprenorphine and anaesthetized using 5% isoflurane and 1.8 l/min O2. After a partial laminectomy at T8, DC were crushed bilaterally using calibrated watchmaker's forceps as described by us previously (12). Animals were dosed immediately after injury and allowed to recover in their home cage. Drugs were given every 24 hours for the duration of each experiment. Tape sensing and removal and horizontal ladder crossing tests were used to detect sensory and locomotor changes after DC injury and treatment as described by us previously (7). Briefly, tape sensing and removal was tested by attaching a 15/15 mm piece of sticky tape (Kip Hochkrepp, Bocholt, Germany) onto the plantar surface of each the left paw of each mouse and recording the time taken to detect and remove the tape. For the ladder crossing test, each mouse was trained prior to DC injury to master the traversing the ladder (0.9 m long and 15.5 cm wide with randomly adjusted rungs). Animals were assessed crossing the ladder and the total number of steps and the number of left and right hind paw slips were recorded and presented as an error ratio. All of these tests were performed at 2 days after injury, then at 1 week followed by weekly tests for 6 weeks. The experimenter was masked to the treatment conditions and animals were assessed in the same order and time of day with each test performed for 3 individual trials on each occasion.

Another series deals with DC axons. Format: in vivo, mice. To be noted: oral 20 mg/kg once daily; for DC axon regeneration through the lesion site: 6 weeks after injury.
The next series has as its target T1, pATM (pSer 1981) (Mus musculus, UniProt Q62388).
T1 construct: L4/L5 DRG pairs were dissected out and snap frozen in liquid nitrogen; from tissue; host or cells: mouse L4/L5 dorsal root ganglia, 4 weeks after DC crush injury
Nature of the series: pATM levels in DRG after DC crush injury, western blot and densitometry. The class given is in vivo, mice. To be noted: for pATM (pSer 1981) levels: oral 20 mg/kg once daily, DRG at 4 weeks after DC injury; for pATM inhibition in DRGN from SCI treated animals: oral, doses up to 100 mg/kg. The procedure: Mice were subcutaneously injected with Buprenorphine and anaesthetized using 5% isoflurane and 1.8 l/min O2. After a partial laminectomy at T8, DC were crushed bilaterally using calibrated watchmaker's forceps as described by us previously (12). Animals were dosed immediately after injury and allowed to recover in their home cage. Drugs were given every 24 hours for the duration of each experiment.
For western blot, animals were killed at 4 weeks and tissues harvested as described below. For immunohistochemistry and behavioural analysis, animals were treated up to 6 weeks after DC injury.
Methods for tissue harvesting have been described by us previously (7, 12). Briefly, for western blot analysis: animals were killed by rising concentrations of CO2 and L4/L5 DRG pairs were dissected out and snap frozen in liquid nitrogen and stored at −80° C. until required (7). For immunohistochemistry: animals were killed in rising concentrations of CO2 and intracardially perfused with 4% paraformaldehyde (7, 12). The SCI site+5 mm either side of the lesion center was dissected out and postfixed in 4% formaldehyde for 2 hr, followed by cryoprotection in a graded series of sucrose and embedded in optimal temperature cutting medium (#12678646, ThermoFisher). Sections were cut at 15 μm-thick stored at −80° C. until required.
Total protein was extracted from DRGN cultures and fresh DRG tissues as described by us previously (7, 12). Briefly, cultures/DRG tissues were washed in PBS and total protein extracted in ice-cold lysis buffer containing 20 mM HEPES, 1 mM EDTA, 150 mM NaCl, 1% NP-40 and 1 mM DTT and supplemented with protease (#P8340) and phosphatase inhibitor cocktails (#P5726) (all from Sigma). After a protein assay using the Bradford Assay Kit (#5000001; BioRad, Watford, UK), 15 μg of total protein was separated on 12% Tris-glycine SDS-PAGE gels. Proteins were then transferred onto PVDF membranes (#1EVH00005, Merck, Gillingham, UK), blocked in non-fat milk and incubated with rabbit anti-pATM (ser1981) antibody (#13050, 1:200 dilution, Cell Signalling Technology, London, UK) overnight at 4° C. Membranes were then washed in Tris buffered saline (TBS) and incubated with appropriate mouse/rabbit HRP-labelled secondary antibody (#GENA934; 1:1000 dilution, GE Healthcare, Buckinghamshire, UK) and bands detected using an enhanced chemiluminescence kit (#RPN2108, GE Healthcare). Rabbit anti-β-actin antibody (#ZRB1312, 1:1000; Sigma) was used as a loading control for western blots.
For densitometry, western blots were scanned into Adobe Photoshop (Adobe Systems, San Jose, CA, USA) keeping all scanning parameters the same between each blot and densitometrically analysed using the built-in gel plotting macros in ImageJ (ww.nihimage.nih.gov), as previously described (7).
On the technique in general: In western blotting, separated proteins are transferred to a membrane and probed.

The test system of series [2] is DC injury model of SCI. Nature of the series: tape sensing and removal test (sensory function) after DC injury. The class given is in vivo, mice. The conditions noted are these: oral; for tape sensing and removal time: over 6 weeks after DC injury, versus controls. The procedure:
as §1

For series [3], the target named is T2, phosphorylated ATM (pATM) (Rattus norvegicus, UniProt D4ACL8).
T2 construct: Total protein was extracted from DRGN cultures and fresh DRG tissues; endogenous in cells; host or cells: primary adult rat dorsal root ganglion neurons
Nature of the series: pATM levels in DRGN cultures, western blot and densitometry. Format: cell-based. On the procedure: Primary adult rat DRGN cultures were prepared as described by us previously (11). DRGN were dissociated using collagenase and cultured in supplemented Neurobasal-A (#10888022; NBA) containing B27 supplement (#17504044), L-glutamine (#25030081) and gentamicin (#15710064) (all from Invitrogen, Paisley, UK) at a plating density of 500/well in 8-well chamber slides (#C6932; Beckton Dickinson, Oxford, UK) pre-coated with 100 μg/ml poly-D-lysine (#P6407; Sigma, Poole, UK). […] Sigma) at 30 μM (11). […] Positive controls included pre-optimized fibroblast growth factor-2 (FGF-2) (#100-18C, Peprotech, London, UK; 10 ng/ml (11)). Cells were cultured for 4 days in a humidified chamber at 37° C. and 5% CO2 before being subjected to immunocytochemistry, as described below. Treatments were added in triplicate and repeated on 3 independent occasions (i.e. total n=9 wells/treatment) by an investigator masked to the treatment conditions. […] Tocris, Oxford, UK) were dissolved in DMSO (Sigma, Poole, UK) at stock concentrations of 10 mM for in vitro use. […] After a protein assay using the Bradford Assay Kit (#5000001; […] Proteins were then transferred onto PVDF membranes (#1EVH00005, Merck, Gillingham, UK), blocked in non-fat milk and incubated with rabbit anti-pATM ([…]) antibody (#13050, 1:200 dilution, Cell Signalling Technology, London, UK) overnight at 4° C. Membranes were then washed in Tris buffered saline (TBS) and incubated with appropriate mouse/rabbit HRP-labelled secondary antibody (#GENA934; 1:1000 dilution, GE Healthcare, Buckinghamshire, UK) and bands detected using an enhanced chemiluminescence kit (#RPN2108, GE Healthcare). Rabbit anti-β-actin antibody (#ZRB1312, 1:1000; Sigma) was used as a loading control for western blots. For densitometry, western blots were scanned into Adobe Photoshop (Adobe Systems, San Jose, CA, USA) keeping all scanning parameters the same between each blot and densitometrically analysed using the built-in gel plotting macros in ImageJ ([…].gov), as previously described (7).

The test system of another series is γH2Ax+ foci. To be noted: twice weekly injections directly into the CSF, cited from earlier work.
Series [4] deals with DC injury model of SCI. Put plainly: electrophysiology, compound action potentials across the lesion site after DC injury. Format: in vivo, mice. The conditions noted are these: oral, 6 weeks after DC injury. The procedure:
Mice were subcutaneously injected with Buprenorphine and anaesthetized using 5% isoflurane and 1.8 l/min O2. After a partial laminectomy at T8, DC were crushed bilaterally using calibrated watchmaker's forceps as described by us previously (12). Animals were dosed immediately after injury and allowed to recover in their home cage. Drugs were given every 24 hours for the duration of each experiment. […] Spike 2 software (Cambridge Electronic Design, Cambridge, UK) was used to process and analyse the traces and determine the CAP amplitude and CAP area for each condition.

Series [5] has as its target T3, ATM (Homo sapiens, UniProt Q13315). To be noted: read-out: cell IC50; cited from earlier work.
The target in series [6] is T3, ATM. The conditions noted are these: cited from earlier work.
Another series has as its system brain gliomas. To be noted: in combination with daily ionizing radiation therapy; cited from earlier work.
For series [7], the system named is kinases within the same family. The conditions noted are these: cited from earlier work.
The conditions of series [8]: after oral administration; cited from earlier work.
Where [9] appears, read: 5 nM, compared to vehicle-treated DRGN.

Where two headings read alike, the source gives them in different places. A value given as a limit tells only on which side of the number the result lay.

Here are results for three compounds from patent US20240408077A1, “ATM KINASE INHIBITORS FOR USE IN THE TREATMENT OF NEUROLOGICAL CONDITIONS” (The University of Birmingham, priority 2021, published 2024).

T2 sequence (D4ACL8 1-3064): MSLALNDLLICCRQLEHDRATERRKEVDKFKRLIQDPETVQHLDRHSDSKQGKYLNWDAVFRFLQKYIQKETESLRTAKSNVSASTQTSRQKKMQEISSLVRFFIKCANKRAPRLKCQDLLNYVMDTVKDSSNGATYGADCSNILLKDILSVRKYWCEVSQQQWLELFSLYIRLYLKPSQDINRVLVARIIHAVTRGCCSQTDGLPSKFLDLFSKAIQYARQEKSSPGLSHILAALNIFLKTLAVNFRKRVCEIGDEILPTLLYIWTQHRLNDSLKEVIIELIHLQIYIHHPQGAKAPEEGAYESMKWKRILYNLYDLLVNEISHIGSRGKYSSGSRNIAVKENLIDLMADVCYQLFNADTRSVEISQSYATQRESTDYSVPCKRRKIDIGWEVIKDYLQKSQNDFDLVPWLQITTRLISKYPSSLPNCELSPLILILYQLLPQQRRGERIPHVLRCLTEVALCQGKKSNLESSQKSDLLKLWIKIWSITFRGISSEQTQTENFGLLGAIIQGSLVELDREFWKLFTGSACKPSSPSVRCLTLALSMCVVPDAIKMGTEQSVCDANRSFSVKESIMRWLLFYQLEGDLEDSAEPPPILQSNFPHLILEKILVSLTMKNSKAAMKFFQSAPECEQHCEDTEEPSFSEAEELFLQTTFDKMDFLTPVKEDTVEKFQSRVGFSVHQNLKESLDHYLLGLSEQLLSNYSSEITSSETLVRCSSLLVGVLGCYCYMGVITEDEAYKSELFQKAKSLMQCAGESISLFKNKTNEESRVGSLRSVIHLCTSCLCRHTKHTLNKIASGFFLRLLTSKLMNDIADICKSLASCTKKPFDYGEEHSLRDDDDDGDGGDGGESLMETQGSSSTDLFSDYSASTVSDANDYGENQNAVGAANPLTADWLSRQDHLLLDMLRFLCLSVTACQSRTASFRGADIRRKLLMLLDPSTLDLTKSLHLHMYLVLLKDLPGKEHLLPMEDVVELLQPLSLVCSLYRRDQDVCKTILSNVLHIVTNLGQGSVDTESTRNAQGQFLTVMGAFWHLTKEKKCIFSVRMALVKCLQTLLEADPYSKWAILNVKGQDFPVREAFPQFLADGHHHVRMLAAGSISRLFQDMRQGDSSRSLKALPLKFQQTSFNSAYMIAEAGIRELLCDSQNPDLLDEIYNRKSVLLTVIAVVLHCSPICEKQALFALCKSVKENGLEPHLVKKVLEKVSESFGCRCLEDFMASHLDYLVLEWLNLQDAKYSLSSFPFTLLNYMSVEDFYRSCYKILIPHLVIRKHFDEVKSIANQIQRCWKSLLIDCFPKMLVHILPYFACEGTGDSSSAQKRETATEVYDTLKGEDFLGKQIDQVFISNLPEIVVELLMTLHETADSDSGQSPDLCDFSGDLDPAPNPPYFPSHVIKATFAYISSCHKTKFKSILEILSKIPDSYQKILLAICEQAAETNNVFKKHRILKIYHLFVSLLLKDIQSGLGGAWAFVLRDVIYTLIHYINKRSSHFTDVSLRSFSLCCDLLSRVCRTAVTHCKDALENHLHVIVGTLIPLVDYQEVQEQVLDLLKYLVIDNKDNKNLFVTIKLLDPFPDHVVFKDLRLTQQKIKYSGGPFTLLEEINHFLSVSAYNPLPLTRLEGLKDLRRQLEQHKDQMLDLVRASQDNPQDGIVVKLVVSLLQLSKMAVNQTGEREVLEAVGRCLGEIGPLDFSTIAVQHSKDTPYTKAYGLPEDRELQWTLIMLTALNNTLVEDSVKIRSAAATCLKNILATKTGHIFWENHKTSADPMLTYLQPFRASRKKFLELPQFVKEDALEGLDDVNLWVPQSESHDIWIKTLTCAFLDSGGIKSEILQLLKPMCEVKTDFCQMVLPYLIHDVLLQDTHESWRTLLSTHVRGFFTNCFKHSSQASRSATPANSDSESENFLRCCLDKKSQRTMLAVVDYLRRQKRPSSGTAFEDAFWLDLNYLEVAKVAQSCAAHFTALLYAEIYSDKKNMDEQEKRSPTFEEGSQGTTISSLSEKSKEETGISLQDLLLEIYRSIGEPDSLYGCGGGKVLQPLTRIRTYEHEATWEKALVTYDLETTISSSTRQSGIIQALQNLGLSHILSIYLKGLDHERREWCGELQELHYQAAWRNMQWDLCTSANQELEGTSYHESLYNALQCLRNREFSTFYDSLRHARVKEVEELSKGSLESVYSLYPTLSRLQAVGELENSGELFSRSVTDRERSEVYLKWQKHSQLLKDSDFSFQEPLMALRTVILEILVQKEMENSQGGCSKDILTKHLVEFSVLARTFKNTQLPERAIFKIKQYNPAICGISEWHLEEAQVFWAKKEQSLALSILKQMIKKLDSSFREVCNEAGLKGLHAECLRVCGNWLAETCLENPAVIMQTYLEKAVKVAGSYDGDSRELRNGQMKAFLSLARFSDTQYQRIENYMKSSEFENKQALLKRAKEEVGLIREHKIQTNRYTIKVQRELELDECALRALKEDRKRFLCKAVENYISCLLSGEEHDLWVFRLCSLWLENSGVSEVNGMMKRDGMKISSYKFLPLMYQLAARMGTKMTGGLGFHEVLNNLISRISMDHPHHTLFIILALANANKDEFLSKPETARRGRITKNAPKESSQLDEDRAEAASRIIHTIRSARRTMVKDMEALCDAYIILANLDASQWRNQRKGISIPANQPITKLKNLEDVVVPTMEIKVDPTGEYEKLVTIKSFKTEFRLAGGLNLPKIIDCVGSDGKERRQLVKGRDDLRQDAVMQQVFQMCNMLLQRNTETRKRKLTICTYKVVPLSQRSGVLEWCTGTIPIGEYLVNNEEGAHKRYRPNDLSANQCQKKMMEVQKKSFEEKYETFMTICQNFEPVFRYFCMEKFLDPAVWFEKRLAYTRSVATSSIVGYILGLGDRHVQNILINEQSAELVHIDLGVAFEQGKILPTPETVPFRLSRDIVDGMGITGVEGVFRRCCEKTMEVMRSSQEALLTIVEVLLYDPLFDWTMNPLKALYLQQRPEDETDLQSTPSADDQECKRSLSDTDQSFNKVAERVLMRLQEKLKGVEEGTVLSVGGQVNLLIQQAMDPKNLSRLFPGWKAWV

For the compound “FGF-2: fibroblast growth factor-2, positive control (Peprotech), 10 ng/ml”, the “DRGN survival and neurite outgrowth in comparison with AZD1390” value in the series with primary adult rat DRGN (FGF-2 10 ng/ml positive control, KU-60019 at concentrations of a recent study) is on record as “inferior compared to AZD1390”.

For `C[C@@H]1CN(CC(=O)Nc2ccc3c(c2)Cc2cccc(-c4cc(=O)cc(N5CCOCC5)o4)c2S3)C[C@H](C)O1` [KU-60019], the “locomotor function, ladder crossing” value with DC injury model of SCI [1] is reported as “a significant deficit remained”. Besides, the “DC axon regeneration through the lesion site” value with DC axons is reported as “not oral KU-60019 promoted DC axon regeneration”. For the same compound, the “suppression of pATM levels” value on pATM (pSer 1981) (intrathecal delivery after injury) stood at 81%. Also, the “pATM (pSer 1981) levels” value on pATM (pSer 1981) is on record as “no effect”. The figures for the “pATM inhibition in DRGN from SCI treated animals” value on pATM (pSer 1981) and on pATM (pSer 1981) (listed as KU6000-19) were “no pATM inhibition” and “no effect”, respectively. The “tape sensing and removal time” value in the series on DC injury model of SCI [2] is recorded as “no effect”. The “ATM activation in vitro” value in series [3] was “able to suppress ATM activation in vitro”. The “γH2Ax+ foci” value in the series on γH2Ax+ foci (after SCI) was “reduced”. The “functional recovery after SCI” value with γH2Ax+ foci was “promoted significant functional recovery”.

The IC50 is the midpoint of a concentration-inhibition curve. For the compound `CC(C)n1c(=O)n(C)c2cnc3ccc(-c4ccc(OCCCN5CCCCC5)nc4F)cc3c21` [AZD1390, 8-[2-Fluoro-6-[3-(I-piperidyl)propoxy]-3-pyridyl]-1-isopropyl-3-methyl-imidazo[4,5-c]quinolin-2-one], in the series on DC injury model of SCI [4], the CAP amplitudes result is “significantly improved”, the CAP areas result is on record as “significantly improved” and the CAP trace result is reported as “return of a significant CAP trace”. Besides, in the series on DC injury model of SCI [1], the “time to recover to sham-uninjured control levels, ladder crossing” value is on record as not above 4 weeks and the “locomotor function, ladder crossing” value is on record as “marked improvement”. In addition, on ATM [5], the IC50 was 0.78 nM. Also, the half-inhibitory concentration (IC50) at ATM [6] was 0.5 to 3 nM. In the series on DC axons, the “DC axon regeneration through the lesion site” value was “promoted DC axon regeneration through the lesion site and into the rostral cord”. In addition, the “axons regenerating beyond the lesion site” value in the series on DC axons (up to 1 mm beyond the lesion site, compared to vehicle-treated mice) is given as “up to 12%”. The “tumor response and survival” value in the series with brain gliomas is “induced tumor regression and prolonged survival”. For the same compound, the “pATM (pSer 1981) levels” value on pATM (pSer 1981) was “significant suppression”. In addition, in the series with primary adult rat DRGN (setting [9]), the “increase of DRGN survival” value came out at 60%, the “increase of longest neurite length” value is 81% and the “increase of percentage of DRGN with neurites” value amounted to 88%. Besides, the “time for sensory function to return to baseline of sham-uninjured animals” value in the series on DC injury model of SCI [2] (after injury) is listed as not above 4 weeks. Moreover, in the series on DC injury model of SCI [2], the “tape sensing and removal time” value was “significantly shorter time than controls”. Besides, the “selectivity over kinases within the same family” value in series [7] was > 10,000 fold. Further, the “reduction of pATM levels” value in series [3] (5 nM, compared to vehicle-treated (0 nM) cultures) turned out to be 70%. In series [3] (concentrations 1-10 nM tested), the “lowest most effective dose for reduction of pATM levels” value amounted to 5 nM. The “time bioavailable in the brain” value in series [8] was “at least 8 hours”.
